# Results: US8048882B2, “Pharmaceutical compositions with increased activity” (priority 2003, dated 2011)
# Like-named read-outs stand apart in the source and are kept apart here.
# Key:
# [1] = tested on: GYKI 20039-induced tremor; experiment: GYKI 20039-induced tremor test; assay type: in vivo, mice; settings: for change of effectiveness in tremor test when a serotonin uptake inhibitor is present: with 10 mg/kg fluoxetine or 10 mg/kg sertraline i.p., FIG. 4
# Method: Tremor can be induced by administration of GYKI 20039 (3-(2,6-diclorophenyl)-2-iminothiazolidine). The method was published by Kocsis P., Tarnawa I., Kovacs Gy., Szombathelyi Zs., Farkas S., 2002; Acta Pharmaceut. Hung., 72:49-61; U.S. Pat. No. 5,340,823, 1994, U.S. Pat. No. 5,198,446, JP 1992270293, EP 0468825, 1990 HU 4647.
# Tests were carried out in male NMRI mice (19-21 g), the active substances were administered i.p., simultaneously.
# Experiments with combinations containing the active agents in a fixed ratio were also performed.
# [2] = tested on: maximal electroshock seizures; experiment: Inhibition of maximal electroshock seizures (MES); assay type: in vivo, mice; settings: sodium channel blocker 30 minutes prior to electroshock
# Method: Experiments in this respect were carried out on male NMRI mice (19-21 g).
# Serotonin uptake inhibitors were administered i.p. 45 minutes, while sodium channel blockers 30 minutes prior to the electroshock.
# Rotarod test = settings: male, NMRI, mouse, in vivo, read-out: ED50, rotarod test in mice
# Method: By the rotarod test (Dunnham, N. W., Miya, T. S. J. Am. Pharm. Assoc. 46, 208, 1957) impaired coordination and disorders of the voluntary movement as possible side effects can be studied. In this respect the change in the potency of the voltage-dependent sodium channel blockers caused by the serotonin uptake inhibitors was far less pronounced, resulting in a more favourable side effect profile of the combinations compared to that of the parent compounds.
# The tests were carried out using male NMRI mice (19-21 g). Experiments performed with different pretreatment times produced similar results.
# [3] = tested on: spinal reflex (L5 ventral root reflex potential); experiment: Inhibition of the spinal reflex in isolated hemisected spinal cord preparation, in vitro; set-up: species or system rat; settings: alone
# Method: Our experiments were performed according to the methods described by Otsuka and Konishi (Otsuka, M., Konishi, S. Electrophysiology of mammalian spinal cord in vitro. Nature 252, 733-734; 1974), with slight modifications (Kocsis, P. et al. Participation of AMPA- and NMDA-type excitatory amino acid receptors in the spinal reflex transmission, in rat. Brain Research Bulletin 60: 81-91; 2003). The L5 dorsal root of the isolated, hemisected spinal cord preparation was stimulated by supramaximal electrical impulse and the reflex potential from the L5 ventral root was recorded. Different components of the reflex potential obtained are well distinguishable based on their post-stimulus latencies and durations. […] This preparation is ideal for the investigation of pharmacodynamic interactions between two substances, since metabolic factors take no part in them. […] Cont (control)=effect of crobenitine in itself; as well as in the presence of fluoxetine (Fluo; 1 μM), sertraline (Sert; 0.5 μM), paroxetine (Paro; 10 nM) and citalopram (Cital; 5 nM).
# [4] = tested on: phenylquinone-induced acute pain; experiment: Phenylquinone-induced acute pain (writhing test); assay type: in vivo, mice; settings: with 10 mg/kg fluoxetine given 15 minutes prior to lamotrigine (i.p.); FIG. 5
# From the text: The method used was described by Hendershot and Forsaith in 1959. (Kazuko Goto et al. Analgesic Effect of Mofezolac, a Non-Steroidal Anti-Inflammatory Drug, Against Phenylquinone-Induced Acute Pain in Mice. Prostaglandins & other Lipid Mediators 56: 245-254; 1998, Prem Prakash Singh et al. Acetic Acid and Phenylquinone WrithingTest: A Critical Study in Mice. Meth and Find Exptl Clin Pharmacol 5(9): 601-606; 1983.) Acute pain was induced by injecting phenylquinone, an irritant, into the abdominal cavity (0.02% solution, 0.1 ml/10 g bodyweight). […] Experiments were performed in male NMRI mice (19-21 g).
# [5] = 10 mg/kg intraperitoneal dose in mice
# [6] = with fluoxetine (10 mg/kg) i.p. 45 minutes
# [7] = with sertraline (10 mg/kg) i.p. 45 minutes
# [8] = in combination with fluoxetine (10 mg/kg)
# [9] = in combination with sertraline (10 mg/kg)
compound,measurement,setting,value
"N=C1SCCN1c1c(Cl)cccc1Cl [GYKI 20039, 3-(2,6-diclorophenyl)-2-iminothiazolidine]",duration of induced tremor,[1]; [5],30 to 60 min
same,tremor induction,[1]; [5],intensive tremor
C[C@@H](CN1CC[C@@]2(C)c3cccc(O)c3C[C@@H]1C2(C)C)OCc1ccccc1 [crobenetine],ID50 (MES inhibition in mice),[2]; alone,>>20
same,ID50 (MES inhibition in mice),[2]; [6],17 mg/kg
same,ID50 (MES inhibition in mice),[2]; [7],15.5 mg/kg
same,ED50 at 20 min,Rotarod test; alone,68.1 mg/kg
same,ED50 at 20 min,Rotarod test; [8],38.6 mg/kg
same,ED50 at 35 min,Rotarod test; [8],51 mg/kg
same,ED50 at 20 min,Rotarod test; [9],36.8 mg/kg
same,ED50 at 35 min,Rotarod test; [9],53.1 mg/kg
same,change of effectiveness in tremor test when a serotonin uptake inhibitor is present,[1],increase of their effectiveness
CCc1ccc(C(=O)C(C)CN2CCCCC2)cc1 (stereo not shown) [eperisone],spinal reflex inhibitory effect,[3],considerable spinal reflex inhibitory effect
CNCCC(Oc1ccc(C(F)(F)F)cc1)c1ccccc1 (stereo not shown) [fluoxetine],ED50 at 20 min,Rotarod test; alone,43.5 mg/kg
same,ED50 at 35 min,Rotarod test; alone,45.8 mg/kg
Nc1nnc(-c2cccc(Cl)c2Cl)c(N)n1 [lamotrigine],ID50 (MES inhibition in mice),[2]; alone,4.5 mg/kg
same,ID50 (MES inhibition in mice),[2]; [6],1.3 mg/kg
same,ID50 (MES inhibition in mice),[2]; [7],1.4 mg/kg
same,"change in analgesic potency (ID50, writhing test) in the presence of a serotonin uptake inhibitor",[4],Increase in the analgesic potency
same,ED50 at 20 min,Rotarod test; alone,34.3 mg/kg
same,ED50 at 20 min,Rotarod test; [8],28.5 mg/kg
same,ED50 at 35 min,Rotarod test; [8],31.1 mg/kg
same,ED50 at 20 min,Rotarod test; [9],31.9 mg/kg
same,ED50 at 35 min,Rotarod test; [9],30.8 mg/kg
same,ID50 (i.p.) (calculated for the sodium channel blocker in the combination),"[1]; tremor test, male NMRI mice, i.p., components administered simultaneously in fixed ratio",39.79 mg/kg
same,change of effectiveness in tremor test when a serotonin uptake inhibitor is present,[1],increase of their effectiveness
CN[C@H]1CC[C@@H](c2ccc(Cl)c(Cl)c2)c2ccccc21 [sertraline],ED50 at 20 min,Rotarod test; alone,112 mg/kg
same,ED50 at 35 min,Rotarod test; alone,120 mg/kg
Cc1ccc(C(=O)C(C)CN2CCCCC2)cc1 (stereo not shown) [tolperisone],spinal reflex inhibitory effect,[3],considerable spinal reflex inhibitory effect
